Data reported in patent US5399562A, “Indolones useful as serotonergic agents” (G. D. Searle & Co., priority 1994, dated 1995).
Where a name gives a salt, the structure may show the parent alone.

Key:
5-HT4 receptor [1] = biological target: 5-HT4 receptor (Rattus norvegicus, UniProt Q62758); experiment: cell-based; details: rat esophagus TMM contracted with carbachol (3 μM), 37° C., cumulative addition; read-out: 5-HT4 Agonism (Rat TMM) In Vitro Assay: EC50 values
Protocol: (§1) The 5-HT4 agonist activity was determined in the in vitro rat tunica muscularis mucosae (TMM) assay described herein. (Baxter et al., Naunyn Schmied Arch. Pharmacol, 1991, 343, 439). […] One with skill in the art could determine the activity of the compounds of the present invention using the methodology of these assays, described herein, without undue experimentation.
Agonist activity was determined utilizing relaxation of carbachol-contracted rat tunica muscularis mucosae (TMM). One 2 cm segment of intrathoracic esophagus proximal to the diaphragm was removed from male rats, weighing approximately 300 gm, and the outer muscle layers removed. The inner tunica muscularis mucosa was mounted under 0.2-0.3 g of tension in a tissue bath containing oxygenated Tyrode's solution at 37° C. […] Following a 30 min equilibrium period, tissues were isometrically contracted with carbachol (3 μM) to obtain a tonic contraction. A stable plateau was obtained within 20 min when test compound was added cumulatively to relax the muscle strip. EC50 values were obtained for each compound in tissues from 5 rats.

myenteric neurons = details: Nemeth and Gullikson 1989; cited from earlier work
5-HT4 receptor [2] = details: Dumuis et al. 1989, mouse embryonic colliculi neurons; cited from earlier work
5-HT4 receptors = details: Craig and Clarke; cited from earlier work
dogs = details: cited from earlier work; for antroduodenal motility in dogs: Van Nueten et al. 1989
5-HT3 receptor = biological target: T1, 5-HT3 receptor (Rattus norvegicus, UniProt P35563); experiment: 5-HT3 radioligand receptor binding assay ([3H]-GR65630), rat brain cortex membranes
T1 construct: Brain cortices were obtained from male rats and a membrane fraction prepared by standard techniques; from tissue; host or cells: male rat brain cortex membranes
T1 sequence (P35563 24-483): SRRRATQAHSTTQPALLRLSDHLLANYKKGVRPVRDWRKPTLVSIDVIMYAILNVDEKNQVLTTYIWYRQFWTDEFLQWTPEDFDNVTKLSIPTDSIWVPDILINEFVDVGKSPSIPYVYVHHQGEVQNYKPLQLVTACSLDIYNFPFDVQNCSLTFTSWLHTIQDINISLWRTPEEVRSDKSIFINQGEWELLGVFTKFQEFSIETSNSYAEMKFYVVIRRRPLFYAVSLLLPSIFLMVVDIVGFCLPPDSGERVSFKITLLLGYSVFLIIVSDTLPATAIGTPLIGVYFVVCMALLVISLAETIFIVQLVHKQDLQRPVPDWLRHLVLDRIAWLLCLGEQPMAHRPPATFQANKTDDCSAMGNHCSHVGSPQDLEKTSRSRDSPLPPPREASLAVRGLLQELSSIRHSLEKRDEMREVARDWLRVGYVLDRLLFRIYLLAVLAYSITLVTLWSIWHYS
Protocol: as §1
Procedure: GR65630 binds to the 5-HT3 receptor. Brain cortices were obtained from male rats and a membrane fraction prepared by standard techniques. 0.04 mg of membrane prep was incubated with 0.2 nM [^3 H]-GR65630 for 66 minutes at 22° C. […] Membranes were filtered and washed 3 times and the filters were counted to determine [^3 H]-GR65630 specifically bound. [Kilpatrick GJ, Jones BJ and Tyers MB, Identification and Distribution of 5-HT3 Receptors in Rat Brain Using Radioligand Binding Assay, Nature, 330, 746-748 (1987)].

man [3] = details: Gore et al. 1990, man; cited from earlier work
man [4] = details: Talley et al. 1989, man; cited from earlier work
gastric emptying [5] = details: Gidda et al. 1988; cited from earlier work
gastric emptying [6] = details: Buchheit et al. 1985; cited from earlier work
[7] = tested on: guinea pig stomach muscle strips; details: cited from earlier work; for guinea pig stomach muscle strip contraction in vitro: Buchheit et al. 1985
GI tract = details: various animal models; cited from earlier work
5-HT3 = details: in vivo; cited from earlier work

5-HT4 receptor (Rattus norvegicus, UniProt Q62758), sequence (Q62758 whole entry): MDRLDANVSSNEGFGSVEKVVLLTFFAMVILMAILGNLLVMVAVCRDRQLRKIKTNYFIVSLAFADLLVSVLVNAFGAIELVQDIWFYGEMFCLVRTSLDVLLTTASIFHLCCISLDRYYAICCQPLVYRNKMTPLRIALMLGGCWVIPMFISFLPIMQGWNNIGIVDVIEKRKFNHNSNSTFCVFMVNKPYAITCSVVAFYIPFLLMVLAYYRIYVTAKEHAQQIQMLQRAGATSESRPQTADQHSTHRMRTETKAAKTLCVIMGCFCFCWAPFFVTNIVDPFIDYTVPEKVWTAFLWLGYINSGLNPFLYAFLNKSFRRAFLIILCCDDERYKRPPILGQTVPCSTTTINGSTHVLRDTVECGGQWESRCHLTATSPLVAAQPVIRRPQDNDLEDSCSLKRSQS

CC1(C)C(=O)N(C(=O)NC[C@@H]2CCN3CCC[C@@H]23)c2ccccc21 (relative stereo) [Example 8, Exo-2,3-dihydro-3,3-dimethyl-N-[(hexahydro-1H-pyrrolizin-1S-yl)methyl]-2-oxo-1H-indole-1carboxamide, hydrate hydrochloride] showed an EC50 (5-HT4 receptor [1]) greater than 10000 nM.
For COc1cc(N)c(Cl)cc1C(=O)NC1CCN2CCCC1C2 (centres unmarked) [BRL-24924], the “ability to depolarize myenteric neurons, relation to 5-HT3 antagonism” value (myenteric neurons) is listed as “unrelated to their properties of 5-HT3 antagonism”, the “prokinetic activity, correlation with agonist activity at 5-HT4 receptor” value (5-HT4 receptor [2]) is listed as “correlate with agonist activity” and the “peristaltic reflex evoked, receptor mechanism” value (5-HT4 receptors) is listed as “mediated through agonism at 5-HT4 receptors”.
For COc1cc(N)c(Cl)cc1C(=O)NC1CCN(CCCOc2ccc(F)cc2)CC1OC (centres unmarked) [Cisapride], the “ability to depolarize myenteric neurons, relation to 5-HT3 antagonism” value (myenteric neurons) is given as “unrelated to their properties of 5-HT3 antagonism”, the “prokinetic activity, correlation with agonist activity at 5-HT4 receptor” value (5-HT4 receptor [2]) is given as “correlate with agonist activity” and the “antroduodenal motility in dogs” value (dogs) is given as “enhanced”.
Work on CN1[C@@H]2CC[C@H]1C[C@@H](NC(=O)N1C(=O)C(C)(C)c3ccccc31)C2 [Example 1, Endo-2,3-dihydro-3,3-dimethyl-N-(8-methyl-8-azabicyclo[3.2.1]octan-3-yl)-2-oxo-1H-indole-1-carboxamide, hydrochloride hydrate] yielded a Ki (5-HT3 receptor) of 4 nM and an EC50 (5-HT4 receptor [1]) of 1210 nM.
Work on CN1[C@@H]2CC[C@H]1C[C@@H](NC(=O)N1C(=O)C3(CC3)c3ccccc31)C2 [Example 2, Endo-1',2'-dihydro-N-(8-methyl-8-azabicyclo[3.2.1 octan-3-yl)-2'-oxo-spiro[cyclopropane-1,3'-(3'H)-indole]-1'-carboxamide, hydrate hydrochloride] yielded a Ki (5-HT3 receptor) of 4.1 nM and an EC50 (5-HT4 receptor [1]) of 790 nM.
For O=C(N[C@@H]1[C@@H]2CC3C[C@H]1CN(C3)C2)N1C(=O)C2(CC2)c2ccccc21 [Example 3, Anti-N-(1-azatricyclo[3.3.1.1^3,7]decan-4-yl)-2'-oxo-spiro[cyclopropane-1,3'-[3'H]indole]-1'(2'H)-carboxamide, monohydrochloride], the EC50 (5-HT4 receptor [1]) was 2220 nM.
Compound O=C(N[C@H]1[C@@H]2CC3C[C@H]1CN(C3)C2)N1C(=O)C2(CC2)c2ccccc21 [Example 4, Syn-N-(1-azatricyclo[3.3.1.1^3,7]decan-4-yl)-2'-oxo-spiro[cyclopropane-1,3'-[3'H]indole]-1'(2'H)-carboxamide, monohydrochloride] has an EC50 (5-HT4 receptor [1]) of 2530 nM.
In the case of O=C(NCC12CCN(CC1)CC2)N1C(=O)C2(CC2)c2ccccc21 [Example 5, N-(1-azabicyclo[2.2.2]octan-4-ylmethyl)-2'-oxo-spiro[cyclopropane-1,3'-[3'H]indole]-1'(2'H)-carboxamide, monohydrochloride], the EC50 (5-HT4 receptor [1]) is reported as greater than 10000 nM.
O=C(NCC12CCCN1CCC2)N1C(=O)C2(CC2)c2ccccc21 [Example 6, 2'-oxo-N-[(hexahydro-1H-pyrrolizin-7a(5H)-yl)-methyl]spiro[cyclopropane-1,3'-[3'H]indole]1'(2'H)carboxamide, monohydrochloride] gave an EC50 (5-HT4 receptor [1]) greater than 10000 nM.
With O=C(NCCC12CCCN1CCC2)N1C(=O)C2(CC2)c2ccccc21 [Example 7, 2'-oxo-N-[2-(hexahydro-1H-pyrrolizin-7a(5H)yl)ethyl]spiro[cyclopropane-1,3'-[3'H]indole-1'(2'H)-carboxamide, monohydrochloride] the EC50 (5-HT4 receptor [1]) was 7920 nM.
In the case of Cc1nccn1CC1CCc2c(c3ccccc3n2C)C1=O (centres unmarked) [GR38032], the GI transit (man [3]) is given as “failed to accelerate”, the “colonic transit in man” value (man [3]) is given as “slowed” and the “effect on GI transit in man (conclusion)” value (man [4]) is given as “does not have a major effect on GI transit in man”. For the same compound, the mouth-to-cecum transit times (man [4]) was “did not alter”, the “small intestinal transit times” value (man [4]) was “did not alter” and the gastric emptying (gastric emptying [5]) was “enhanced”.
For Cc1[nH]cnc1CCC(=O)c1cn(C)c2ccccc12 [GR65630], the Bmax (5-HT3 receptor; [3H]-GR65630 radioligand, rat brain cortex membranes) was 154 fmol/mg protein and the “% Specific Binding” value (5-HT3 receptor; [3H]-GR65630 radioligand, non-specific binding with 1 uM ICS 205-930) was 70%.
For CN1[C@@H]2CC[C@H]1C[C@@H](OC(=O)c1c[nH]c3ccccc13)C2 [ICS 205-930], the “gastric emptying rates in vivo” value (gastric emptying [6]) is listed as “increases”, the gastric emptying (gastric emptying [5]) is listed as “enhanced” and the “effect on responses to cisapride when coadministered” value (dogs; Van Nueten et al. 1989, coadministered with cisapride) is listed as “did not affect”. The “antroduodenal motility in dogs” value (dogs) was “did not” and the “guinea pig stomach muscle strip contraction in vitro” value [7] was “enhanced”.
For CN1[C@@H]2CC[C@H]1C[C@@H](OC(=O)c1cc(Cl)cc(Cl)c1)C2 [MDL 72222], the “gastric emptying rates in vivo” value (gastric emptying [6]) is given as “increases” and the “guinea pig stomach muscle strip contraction in vitro” value [7] is given as “enhanced”.
For NCCc1c[nH]c2ccc(O)cc12 [Serotonin, 5-hydroxytryptamine], the “peristalsis in the GI tract” value (GI tract) is given as “promote peristalsis” and the “peristaltic reflex evoked, receptor mechanism” value (5-HT4 receptors) is given as “mediated through agonism at 5-HT4 receptors”.
In the case of CCN(CC)CCNC(=O)c1cc(Cl)c(N)cc1OC [metoclopramide], the “5-HT3-mediated Bezold Jarisch reflex” value (5-HT3) is listed as “blocks”, the “gastric emptying rates in vivo” value (gastric emptying [6]) is listed as “increases” and the “guinea pig stomach muscle strip contraction in vitro” value [7] is listed as “enhanced”. The “electrical-field stimulated contractions in guinea pig stomach strips” value ([7]; Gunning and Naylor 1985) was “enhanced”.
In the case of COc1cc(N)c(Cl)cc1C(=O)NC1CN2CCC1CC2 (centres unmarked) [zacopride], the gastric emptying (gastric emptying [5]) is listed as “enhanced”.
